According to PMC8800111 (The Journal of Biological Chemistry, 2021):

Experiments:
Format in all cases: cell-based
[1] = target: proteins of U3A human fibrosarcoma cells (4462 proteins detected) (Homo sapiens, UniProt O14964); details: protein HGS; U3A cells
[2] = target: proteins of U3A human fibrosarcoma cells (4462 proteins detected) (Homo sapiens, UniProt O75116); details: protein ROCK2; U3A cells
[3] = target: proteins of U3A human fibrosarcoma cells (4462 proteins detected) (Homo sapiens, UniProt O75367); details: protein H2AFY; U3A, 10 μM, 2 h
[4] = target: proteins of U3A human fibrosarcoma cells (4462 proteins detected) (Homo sapiens, UniProt P26447); details: protein S100A4; U3A, 10 μM, 2 h
[5] = target: proteins of U3A human fibrosarcoma cells (4462 proteins detected) (Homo sapiens, UniProt P49841); details: protein GSK3B; soluble abundance after heat, U3A cells
[6] = target: proteins of U3A human fibrosarcoma cells (4462 proteins detected) (Homo sapiens, UniProt P78347); details: protein GTF2I; U3A cells
[7] = target: proteins of U3A human fibrosarcoma cells (4462 proteins detected) (Homo sapiens, UniProt P82663); details: protein MRPS25; U3A cells
[8] = target: proteins of U3A human fibrosarcoma cells (4462 proteins detected) (Homo sapiens, UniProt Q13620); details: protein CUL4B; U3A cells
[9] = target: proteins of U3A human fibrosarcoma cells (4462 proteins detected) (Homo sapiens, UniProt Q13829); details: protein TNFAIP1; U3A cells
[10] = target: proteins of U3A human fibrosarcoma cells (4462 proteins detected) (Homo sapiens, UniProt Q14651); details: protein PLS1; U3A cells
[11] = target: proteins of U3A human fibrosarcoma cells (4462 proteins detected) (Homo sapiens, UniProt Q49AR2); details: protein C5orf22, U3A cells
[12] = target: proteins of U3A human fibrosarcoma cells (4462 proteins detected) (Homo sapiens, UniProt Q68CP9); details: protein ARID2; U3A cells
[13] = target: proteins of U3A human fibrosarcoma cells (4462 proteins detected) (Homo sapiens, UniProt Q6GYQ0); details: protein RALGAPA1; U3A, 10 μM, 2 h
[14] = target: proteins of U3A human fibrosarcoma cells (4462 proteins detected) (Homo sapiens, UniProt Q6P1N0); details: protein CC2D1A; soluble abundance after heat, U3A cells
[15] = target: proteins of U3A human fibrosarcoma cells (4462 proteins detected) (Homo sapiens, UniProt Q7L2H7); details: protein EIF3M; U3A cells
[16] = target: proteins of U3A human fibrosarcoma cells (4462 proteins detected) (Homo sapiens, UniProt Q86TB9); details: protein PATL1; U3A cells
[17] = target: proteins of U3A human fibrosarcoma cells (4462 proteins detected) (Homo sapiens, UniProt Q8IY18); details: protein SMC5; U3A, 10 μM, 2 h
[18] = target: proteins of U3A human fibrosarcoma cells (4462 proteins detected) (Homo sapiens, UniProt Q8TAA5); details: protein GRPEL2; U3A cells
[19] = target: proteins of U3A human fibrosarcoma cells (4462 proteins detected) (Homo sapiens, UniProt Q8TDD1); details: protein DDX54; U3A, 10 μM, 2 h
[20] = target: proteins of U3A human fibrosarcoma cells (4462 proteins detected) (Homo sapiens, UniProt Q8WUR7); details: protein C15orf40, U3A cells
[21] = target: proteins of U3A human fibrosarcoma cells (4462 proteins detected) (Homo sapiens, UniProt Q96DM3); details: protein C18orf8; U3A cells
[22] = target: proteins of U3A human fibrosarcoma cells (4462 proteins detected) (Homo sapiens, UniProt Q96Q89); details: protein KIF20B; U3A cells
[23] = target: proteins of U3A human fibrosarcoma cells (4462 proteins detected) (Homo sapiens, UniProt Q9BZZ5); details: protein API5; U3A cells
[24] = target: proteins of U3A human fibrosarcoma cells (4462 proteins detected) (Homo sapiens, UniProt Q9GZQ3); details: protein COMMD5; U3A cells
[25] = target: proteins of U3A human fibrosarcoma cells (4462 proteins detected) (Homo sapiens, UniProt Q9H1B7); details: protein IRF2BPL; soluble abundance after heat, U3A cells
[26] = target: proteins of U3A human fibrosarcoma cells (4462 proteins detected) (Homo sapiens, UniProt Q9NPF4); details: protein OSGEP; soluble abundance after heat, U3A cells
[27] = target: proteins of U3A human fibrosarcoma cells (4462 proteins detected) (Homo sapiens, UniProt Q9NTZ6); details: protein RBM12; soluble abundance after heat, U3A cells
[28] = target: proteins of U3A human fibrosarcoma cells (4462 proteins detected) (Homo sapiens, UniProt Q9NU23); details: protein LYRM2; U3A, 10 μM, 2 h
[29] = target: proteins of U3A human fibrosarcoma cells (4462 proteins detected) (Homo sapiens, UniProt Q9Y6E0); details: protein STK24; soluble abundance after heat, U3A cells

Sequence of proteins of U3A human fibrosarcoma cells (4462 proteins detected) (Homo sapiens, UniProt Q6P1N0) (Q6P1N0 whole entry): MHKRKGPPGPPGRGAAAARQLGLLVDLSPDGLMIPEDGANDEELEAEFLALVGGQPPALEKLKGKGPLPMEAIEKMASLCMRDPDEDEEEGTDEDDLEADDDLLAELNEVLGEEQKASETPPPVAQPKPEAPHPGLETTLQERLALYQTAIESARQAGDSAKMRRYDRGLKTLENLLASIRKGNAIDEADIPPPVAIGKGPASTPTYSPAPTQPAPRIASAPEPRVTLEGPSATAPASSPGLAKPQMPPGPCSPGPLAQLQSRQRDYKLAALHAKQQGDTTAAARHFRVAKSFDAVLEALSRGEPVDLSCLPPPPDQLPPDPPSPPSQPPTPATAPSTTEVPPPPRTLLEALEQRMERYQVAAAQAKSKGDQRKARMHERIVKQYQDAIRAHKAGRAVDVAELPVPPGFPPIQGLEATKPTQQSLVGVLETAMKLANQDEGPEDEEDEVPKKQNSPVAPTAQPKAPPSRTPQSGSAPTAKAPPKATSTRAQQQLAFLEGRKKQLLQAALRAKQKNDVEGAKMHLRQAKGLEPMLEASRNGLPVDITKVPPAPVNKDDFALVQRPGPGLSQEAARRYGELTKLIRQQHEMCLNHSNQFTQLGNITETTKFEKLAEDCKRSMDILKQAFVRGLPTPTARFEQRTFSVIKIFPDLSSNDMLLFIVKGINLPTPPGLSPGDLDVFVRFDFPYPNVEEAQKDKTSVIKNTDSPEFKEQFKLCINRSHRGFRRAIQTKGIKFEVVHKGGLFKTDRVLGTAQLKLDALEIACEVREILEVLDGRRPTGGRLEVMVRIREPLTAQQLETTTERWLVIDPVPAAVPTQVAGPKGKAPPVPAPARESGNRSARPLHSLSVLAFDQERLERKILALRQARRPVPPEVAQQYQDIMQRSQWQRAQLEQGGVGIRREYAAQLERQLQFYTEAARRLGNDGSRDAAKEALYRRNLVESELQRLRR
Sequence of proteins of U3A human fibrosarcoma cells (4462 proteins detected) (Homo sapiens, UniProt O75367) (O75367 whole entry): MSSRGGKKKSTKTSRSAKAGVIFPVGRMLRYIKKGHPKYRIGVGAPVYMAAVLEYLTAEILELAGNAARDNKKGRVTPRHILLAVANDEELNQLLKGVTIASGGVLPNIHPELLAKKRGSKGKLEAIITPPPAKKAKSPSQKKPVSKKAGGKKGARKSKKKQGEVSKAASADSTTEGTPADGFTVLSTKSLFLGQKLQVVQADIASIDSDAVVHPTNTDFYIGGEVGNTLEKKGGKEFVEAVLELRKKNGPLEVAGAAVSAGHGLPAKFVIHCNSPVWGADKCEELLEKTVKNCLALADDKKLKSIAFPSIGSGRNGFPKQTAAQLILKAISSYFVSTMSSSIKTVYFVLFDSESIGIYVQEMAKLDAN
Sequence of proteins of U3A human fibrosarcoma cells (4462 proteins detected) (Homo sapiens, UniProt P78347) (P78347 whole entry): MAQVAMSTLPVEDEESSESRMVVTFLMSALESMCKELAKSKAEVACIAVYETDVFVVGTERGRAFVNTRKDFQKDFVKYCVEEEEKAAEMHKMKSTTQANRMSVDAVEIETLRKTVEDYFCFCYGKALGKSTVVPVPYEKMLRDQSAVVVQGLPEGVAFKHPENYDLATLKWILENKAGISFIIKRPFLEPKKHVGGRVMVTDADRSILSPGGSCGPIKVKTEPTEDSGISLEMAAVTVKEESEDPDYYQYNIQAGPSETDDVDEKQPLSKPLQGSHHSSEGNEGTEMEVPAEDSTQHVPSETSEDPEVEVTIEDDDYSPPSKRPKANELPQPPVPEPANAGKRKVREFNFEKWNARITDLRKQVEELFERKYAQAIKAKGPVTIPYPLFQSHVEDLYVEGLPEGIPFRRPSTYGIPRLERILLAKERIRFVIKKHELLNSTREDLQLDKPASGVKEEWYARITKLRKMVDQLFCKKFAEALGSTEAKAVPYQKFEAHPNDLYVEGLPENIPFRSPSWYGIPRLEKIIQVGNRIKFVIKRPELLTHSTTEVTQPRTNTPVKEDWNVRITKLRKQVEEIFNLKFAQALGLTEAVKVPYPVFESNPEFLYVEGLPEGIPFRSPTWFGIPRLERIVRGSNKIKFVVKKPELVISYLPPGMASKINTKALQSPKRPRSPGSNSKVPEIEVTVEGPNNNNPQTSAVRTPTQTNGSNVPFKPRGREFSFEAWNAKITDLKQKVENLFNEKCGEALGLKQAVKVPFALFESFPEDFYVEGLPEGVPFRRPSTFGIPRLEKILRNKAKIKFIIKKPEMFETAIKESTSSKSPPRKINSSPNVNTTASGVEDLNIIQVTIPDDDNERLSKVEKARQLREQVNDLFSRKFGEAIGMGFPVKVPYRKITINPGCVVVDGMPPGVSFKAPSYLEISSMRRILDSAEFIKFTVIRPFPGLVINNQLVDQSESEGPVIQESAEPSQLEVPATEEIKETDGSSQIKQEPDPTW
Sequence of proteins of U3A human fibrosarcoma cells (4462 proteins detected) (Homo sapiens, UniProt Q86TB9) (Q86TB9 whole entry): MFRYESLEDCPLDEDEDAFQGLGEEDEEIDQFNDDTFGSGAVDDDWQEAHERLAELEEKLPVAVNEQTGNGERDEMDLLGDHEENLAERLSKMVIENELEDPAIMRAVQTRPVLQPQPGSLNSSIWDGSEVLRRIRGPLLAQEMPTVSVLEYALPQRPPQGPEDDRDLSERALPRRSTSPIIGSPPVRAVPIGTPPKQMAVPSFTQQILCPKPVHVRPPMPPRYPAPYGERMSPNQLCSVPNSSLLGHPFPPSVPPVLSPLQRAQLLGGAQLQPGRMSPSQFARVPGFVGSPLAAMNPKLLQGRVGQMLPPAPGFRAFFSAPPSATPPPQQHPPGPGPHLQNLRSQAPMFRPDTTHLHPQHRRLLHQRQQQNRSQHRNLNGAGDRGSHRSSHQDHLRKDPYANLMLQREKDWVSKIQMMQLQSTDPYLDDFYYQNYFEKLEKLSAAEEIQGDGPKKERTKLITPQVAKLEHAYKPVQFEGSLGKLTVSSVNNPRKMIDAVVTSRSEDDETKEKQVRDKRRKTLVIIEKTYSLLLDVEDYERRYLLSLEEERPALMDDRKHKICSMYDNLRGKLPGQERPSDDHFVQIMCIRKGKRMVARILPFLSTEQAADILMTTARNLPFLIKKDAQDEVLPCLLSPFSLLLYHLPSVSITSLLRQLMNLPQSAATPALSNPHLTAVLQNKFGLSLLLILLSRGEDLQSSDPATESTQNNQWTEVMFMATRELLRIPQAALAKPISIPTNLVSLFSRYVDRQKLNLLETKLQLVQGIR
Sequence of proteins of U3A human fibrosarcoma cells (4462 proteins detected) (Homo sapiens, UniProt Q9GZQ3) (Q9GZQ3 whole entry): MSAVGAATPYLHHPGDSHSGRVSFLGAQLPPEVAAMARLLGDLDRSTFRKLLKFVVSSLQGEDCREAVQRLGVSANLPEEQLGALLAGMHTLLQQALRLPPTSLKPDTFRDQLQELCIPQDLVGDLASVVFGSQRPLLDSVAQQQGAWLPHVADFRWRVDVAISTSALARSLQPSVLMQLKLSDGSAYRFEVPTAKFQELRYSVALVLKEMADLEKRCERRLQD
Sequence of proteins of U3A human fibrosarcoma cells (4462 proteins detected) (Homo sapiens, UniProt Q14651) (Q14651 whole entry): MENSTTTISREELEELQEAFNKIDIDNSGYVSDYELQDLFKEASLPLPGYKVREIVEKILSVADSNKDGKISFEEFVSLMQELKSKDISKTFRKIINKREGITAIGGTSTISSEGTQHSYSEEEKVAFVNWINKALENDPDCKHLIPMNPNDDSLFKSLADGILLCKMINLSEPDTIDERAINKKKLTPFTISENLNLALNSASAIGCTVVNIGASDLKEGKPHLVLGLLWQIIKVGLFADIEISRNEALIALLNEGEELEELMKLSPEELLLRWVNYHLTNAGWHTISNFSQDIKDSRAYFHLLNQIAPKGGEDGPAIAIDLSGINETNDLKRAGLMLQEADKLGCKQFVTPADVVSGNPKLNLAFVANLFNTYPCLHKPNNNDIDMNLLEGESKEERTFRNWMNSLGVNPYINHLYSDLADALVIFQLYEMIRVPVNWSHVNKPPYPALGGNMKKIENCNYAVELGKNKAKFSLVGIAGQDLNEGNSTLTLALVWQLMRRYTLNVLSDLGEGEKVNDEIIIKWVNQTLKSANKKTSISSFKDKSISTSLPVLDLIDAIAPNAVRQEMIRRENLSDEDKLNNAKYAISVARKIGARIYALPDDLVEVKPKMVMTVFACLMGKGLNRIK
Sequence of proteins of U3A human fibrosarcoma cells (4462 proteins detected) (Homo sapiens, UniProt Q8TAA5) (Q8TAA5 33-225): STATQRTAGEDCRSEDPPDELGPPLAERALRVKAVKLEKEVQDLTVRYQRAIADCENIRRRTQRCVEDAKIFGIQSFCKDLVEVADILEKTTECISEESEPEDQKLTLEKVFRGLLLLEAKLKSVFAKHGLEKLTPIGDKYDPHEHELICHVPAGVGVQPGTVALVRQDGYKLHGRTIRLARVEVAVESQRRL
Sequence of proteins of U3A human fibrosarcoma cells (4462 proteins detected) (Homo sapiens, UniProt Q9NPF4) (Q9NPF4 whole entry): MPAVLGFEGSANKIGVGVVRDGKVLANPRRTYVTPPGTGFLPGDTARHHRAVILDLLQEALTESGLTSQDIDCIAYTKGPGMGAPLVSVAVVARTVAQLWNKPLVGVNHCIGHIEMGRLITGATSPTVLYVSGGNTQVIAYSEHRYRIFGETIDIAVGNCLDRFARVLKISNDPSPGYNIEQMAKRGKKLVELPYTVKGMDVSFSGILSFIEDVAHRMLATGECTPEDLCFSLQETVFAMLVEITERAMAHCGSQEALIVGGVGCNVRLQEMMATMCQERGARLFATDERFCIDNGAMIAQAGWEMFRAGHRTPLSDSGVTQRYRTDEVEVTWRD
Sequence of proteins of U3A human fibrosarcoma cells (4462 proteins detected) (Homo sapiens, UniProt Q13829) (Q13829 whole entry): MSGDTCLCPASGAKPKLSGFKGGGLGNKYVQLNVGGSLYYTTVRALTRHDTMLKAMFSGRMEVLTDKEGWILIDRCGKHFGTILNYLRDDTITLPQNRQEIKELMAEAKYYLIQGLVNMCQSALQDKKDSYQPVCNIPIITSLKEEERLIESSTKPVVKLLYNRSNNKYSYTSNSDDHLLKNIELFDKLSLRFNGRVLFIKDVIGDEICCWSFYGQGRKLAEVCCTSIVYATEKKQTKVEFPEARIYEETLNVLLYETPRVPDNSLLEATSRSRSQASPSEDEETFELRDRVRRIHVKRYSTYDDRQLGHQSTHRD
Sequence of proteins of U3A human fibrosarcoma cells (4462 proteins detected) (Homo sapiens, UniProt Q9NU23) (Q9NU23 20-88): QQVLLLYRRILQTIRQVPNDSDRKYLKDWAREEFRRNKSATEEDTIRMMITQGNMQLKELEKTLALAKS
Sequence of proteins of U3A human fibrosarcoma cells (4462 proteins detected) (Homo sapiens, UniProt P26447) (P26447 whole entry): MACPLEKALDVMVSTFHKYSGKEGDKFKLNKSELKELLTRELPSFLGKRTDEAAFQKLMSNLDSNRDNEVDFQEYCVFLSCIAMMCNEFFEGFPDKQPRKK

Structure (SMILES): CCc1nc(N)nc(N)c1-c1ccc(Cl)cc1 [pyrimethamine]
- Log2 (PYR/DMSO) [1]: 0.16
- Log2 (PYR/DMSO) [2]: 0.17
- Log2 (PYR/DMSO), H2AFY [3]: 0.33
- Log2 (PYR/DMSO), S100A4 [4]: -0.16
- Log2 (PYR/DMSO) [5]: 0.15
- Log2 (PYR/DMSO) [6]: 0.23
- Log2 (PYR/DMSO) [7]: 0.17
- Log2 (PYR/DMSO) [8]: 0.18
- Log2 (PYR/DMSO) [9]: 0.21
- Log2 (PYR/DMSO) [10]: 0.17
- Log2 (PYR/DMSO) [11]: -0.04
- Log2 (PYR/DMSO) [12]: 0.18
- Log2 (PYR/DMSO), RALGAPA1 [13]: -0.50
- Log2 (PYR/DMSO) [14]: 0.15
- Log2 (PYR/DMSO) [15]: 0.18
- Log2 (PYR/DMSO) [16]: 0.22
- Log2 (PYR/DMSO), SMC5 [17]: 0.30
- Log2 (PYR/DMSO) [18]: 0.18
- Log2 (PYR/DMSO), DDX54 [19]: 0.25
- Log2 (PYR/DMSO) [20]: -0.03
- Log2 (PYR/DMSO) [21]: 0.17
- Log2 (PYR/DMSO) [22]: 0.23
- Log2 (PYR/DMSO) [23]: 0.24
- Log2 (PYR/DMSO) [24]: 0.21
- Log2 (PYR/DMSO) [25]: 0.14
- Log2 (PYR/DMSO) [26]: 0.14
- Log2 (PYR/DMSO) [27]: 0.15
- Log2 (PYR/DMSO), LYRM2 [28]: 0.27
- Log2 (PYR/DMSO) [29]: 0.15
